Each structure is given as a SMILES string.

The target in this experiment is T1, human M1 muscarinic acetylcholine receptors (Homo sapiens, UniProt P11229).
T1 sequence (P11229 1-460): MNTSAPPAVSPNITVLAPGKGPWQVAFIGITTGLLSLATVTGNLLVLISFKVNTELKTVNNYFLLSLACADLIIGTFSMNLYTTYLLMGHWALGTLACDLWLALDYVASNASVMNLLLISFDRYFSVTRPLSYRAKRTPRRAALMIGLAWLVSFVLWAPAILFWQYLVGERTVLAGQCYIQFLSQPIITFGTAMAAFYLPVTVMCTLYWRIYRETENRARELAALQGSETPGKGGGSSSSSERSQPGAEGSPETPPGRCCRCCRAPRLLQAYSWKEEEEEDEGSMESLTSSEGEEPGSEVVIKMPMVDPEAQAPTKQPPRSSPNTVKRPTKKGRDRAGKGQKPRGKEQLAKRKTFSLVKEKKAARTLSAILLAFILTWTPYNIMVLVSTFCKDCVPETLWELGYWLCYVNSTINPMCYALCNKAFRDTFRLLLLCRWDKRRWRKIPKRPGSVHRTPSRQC
The experiment can be described thus: M1 FLIPR assay (PAM, intracellular calcium). To be noted: potentiation of EC10-EC30 acetylcholine, values marked a: geometric mean of ≧7 determinations, read-out: M1 PAM Inflection Point (μM) Geometric mean of 2-6 determinations (unless otherwise indicated). Type of experiment: cell-based. As for the experimental part:
This assay was designed to select and characterize compounds that affect the activity of human M1 muscarinic acetylcholine receptors (Similar M1 PAM FLIPR assays can be found, for example, at U.S. Pat. No. 8,664,234). Human M1 receptors were stably expressed in Chinese hamster ovary (CHO) cells (HD Bioscience). The effect of test compounds on intracellular calcium was measured on an FLIPR Tetra (Molecular Devices) using the Fluo-8, AM calcium dye (Molecular Probes) with a red dye quenching agent (Sigma).
CHO cells expressing hM1 cells had been previously cultured and frozen in assay ready vials. Cell vials were thawed, then plated at a density of 10,000 cells per well in a 384 well black wall, clear bottom plate (Greiner #781090) and incubated overnight at 37 degrees C. with 5% CO2. Cells were grown and plated in F12 nutrient media (Gibco BRL #21700-075) supplemented with 10% FBS (Hyclone #CH30160.03) and Pen/Strep (Gibco #15070-063).
After overnight incubation, cell plates were removed from the incubator and the growth media was discarded and replaced with loading solution containing the following: 2 μM Fluo-8-AM (Molecular Probes #F14242), 2 mM Probenecid (Sigma #P8761), lx Acid Red 1 (Sigma #210633), in HBSS buffer containing (grams/L): 0.1 CaCl2, 0.1 MgCl2*6H2O, 0.049 MgSO4, 0.4 KCl, 0.06 KH2PO4, 8.06 NaCl, 0.12 Na2HPO4*12H2O, 1.1 D-glucose*H2O, 0.35 NaHCO3, 4.766 HEPES, pH 7.4. The plate was incubated in the loading solution at 37 degrees C. in the dark for 1 hour.
Test compounds were initially prepared as 100% DMSO stock solutions, then transferred and serially diluted in 384-well compound plates (Greiner #784201). Each compound was tested at 10 concentrations in duplicate per experiment. Positive and negative controls for positive allosteric modulator evaluation were 30 μM acetylcholine (Ach) and an EC10-EC30 concentration of acetylcholine, approximately 2 nM but could be adjusted for each experiment to maintain the EC10-EC30 range.
After the 1-hour dye loading incubation, test compounds were added to the cell plate containing Fluo-8. Approximately 10 minutes after compound addition, an EC10-EC30 concentration of acetylcholine was added to each well and the fluorescence measured to determine the PAM potentiation of the compound.
Data was exported from the FLIPR Tetra as maximum fluorescence/minimum fluorescence for each well. The percent effect for each compound well was determined using the mean values for the positive and negative controls on each plate for each read. Percent effect was 100*(compound negative control)/(positive control negative control). Dose response curves were fitted to the compound percent effect data using a 4-parameter logistic fit model to determine PAM (positive allosteric modulator) Inflection Point values. Compounds with inverted U dose response curves had the concentrations greater than the concentration giving the peak response excluded from the fit. Data was reported as Inflection Point. The compounds of Examples 1-72 had activity according to this assay, generally with an Inflection Point (IP) of 10 μM or less (using Inflection Point as a measure of activity). Such a result is indicative of the intrinsic activity of the compounds of the invention as M1 allosteric modulators.
On the technique in general: Calcium assays in cells follow changes in intracellular calcium, usually with a dye or a luminescent sensor.

As for `Cc1cnc(C(=O)NC2CC3(COC3)C2)cc1Cc1ccc(-n2cccn2)cc1` [Example 28, 5-methyl-N-(2-oxaspiro[3.3]hept-6-yl)-4-[4-(1H-pyrazol-1-yl)benzyl]pyridine-2-carboxamide], the EC50 worked out at 4.77 µM.

As for `Cc1cnc(C(=O)N[C@H]2CCCC[C@@H]2O)cc1Cc1ccc(Cl)nc1` [Example 51, 4-[(6-chloropyridin-3-yl)methyl]-N-[(1S,2S)-2-hydroxycyclohexyl]-5-methylpyridine-2-carboxamide], the EC50 stood at 2.83 µM.

As to `Cc1cnc(C(=O)NC2CCOCC2)cc1Cc1ccc(-n2cccn2)cc1` [Example 33, 5-methyl-4-[4-(1H-pyrazol-1-yl)benzyl]-N-(tetrahydro-2H-pyran-4-yl)pyridine-2-carboxamide], the EC50 was found to be 3.44 µM.

As for `Cc1nc(C(=O)N[C@H]2CCOC[C@@H]2O)cc(Cc2ccc(-n3cccn3)cc2)c1Cl` [Example 14, 5-Chloro-N-[(3R,4S)-3-hydroxytetrahydro-2H-pyran-4-yl]-6-methyl-4-[4-(1H-pyrazol-1-yl)benzyl]pyridine-2-carboxamide], the EC50 worked out at 0.116 µM.

Consider `Cc1cnc(C(=O)N[C@H]2CCOC[C@@H]2O)cc1Cc1ccc(-c2cscn2)cc1` [Example 7, N-[(3R,4S)-3-Hydroxytetrahydro-2H-pyran-4-yl]-5-methyl-4-[4-(1,3-thiazol-4-yl)benzyl]pyridine-2-carboxamide], for which the EC50 is 0.06 µM.

In the case of `Cc1cnc(C(=O)N[C@H]2C[C@@](C)(O)C2)cc1Cc1ccc(-n2cccn2)cc1` [Example 30], the EC50 is 1.12 µM.

With `Cc1nnc(-c2ccc(Cc3cc(C(=O)NC4CCOCC4O)ncc3C)cc2)o1` (single isomer, unassigned) [Example 21], the EC50 was found to be 1.95 µM.

Take `O=C(N[C@H]1CCOC[C@@H]1O)c1cc(Cc2ccc(-n3cccn3)cc2)c(C(F)F)cn1` [Example 54, 5-(difluoromethyl)-N-[(3R,4S)-3-hydroxytetrahydro-2H-pyran-4-yl]-4-[4-(1H-pyrazol-1-yl)benzyl]pyridine-2-carboxamide]: the EC50 is 0.198 µM.

Turning to `CC[C@@H](CO)NC(=O)c1cc(Cc2ccc(-n3cccn3)cc2)c(C)cn1` [Example 39, N-[(2S)-1-hydroxybutan-2-yl]-5-methyl-4-[4-(1H-pyrazol-1-yl)benzyl]pyridine-2-carboxamide], the EC50 is 4.83 µM.

For `Cc1cnc(C(=O)N[C@H]2CCOC[C@@H]2O)cc1Cc1ccc(-c2cn(C)nc2C)cc1` [Example 61, 4-[4-(1,3-Dimethyl-1H-pyrazol-4-yl)benzyl]-N-[(3R,4S)-3-hydroxytetrahydro-2H-pyran-4-yl]-5-methylpyridine-2-carboxamide], the EC50 came to 0.116 µM.

In the case of `Cc1cnc(C(=O)N[C@H]2CCOC[C@@H]2O)cc1[C@H](F)c1ccc(-n2cccn2)cc1` [Example 56, 4-{(R)-Fluoro[4-(1H-pyrazol-1-yl)phenyl]methyl}-N-[(3R,4S)-3-hydroxytetrahydro-2H-pyran-4-yl]-5-methylpyridine-2-carboxamide], the EC50 is 0.03 µM.

Take `Cc1cnc(C(=O)NC2CCCCC2(F)F)cc1Cc1ccc(-n2cccn2)cc1` (single isomer, unassigned) [Example 46]: the EC50 is 1.22 µM.

Consider `COc1cnc(C(=O)N[C@H]2CCCC[C@@H]2O)cc1Cc1ccc(-n2cccn2)cc1` [Example 70, N-[(1S,2S)-2-hydroxycyclohexyl]-5-methoxy-4-[4-(1H-pyrazol-1-yl)benzyl]pyridine-2-carboxamide], for which the EC50 was determined as 0.104 µM.

For `Cc1cnc(C(=O)NC2CCC(F)(F)C2)cc1Cc1ccc(-n2cccn2)cc1` (centres unmarked) [Example 48, N-(3,3-difluorocyclopentyl)-5-methyl-4-[4-(1H-pyrazol-1-yl)benzyl]pyridine-2-carboxamide], the EC50 is 3.5 µM.

As to `Cc1cnc(C(=O)NCC2(O)CCCC2)cc1Cc1ccc(-n2cccn2)cc1` [Example 27, N-[(1-hydroxycyclopentyl)methyl]-5-methyl-4-[4-(1H-pyrazol-1-yl)benzyl]pyridine-2-carboxamide], the EC50 was 1.55 µM.

As to `Cc1nc(-c2ccc(Cc3cc(C(=O)NC4CCOCC4O)ncc3C)cc2)co1` (single isomer, unassigned; (+)) [Example 11, (+)-N-[(3,4-trans)-3-Hydroxytetrahydro-2H-pyran-4-yl]-5-methyl-4-[4-(2-methyl-1,3-oxazol-4-yl)benzyl]pyridine-2-carboxamide], the EC50 came out at 0.146 µM.

Regarding `Cc1c[n+]([O-])c(C(=O)N[C@H]2CCOC[C@@H]2O)cc1Cc1ccc(-n2cccn2)cc1` [Example 53, N-[(3R,4S)-3-hydroxytetrahydro-2H-pyran-4-yl]-5-methyl-4-[4-(1H-pyrazol-1-yl)benzyl]pyridine-2-carboxamide 1-oxide], the EC50 came out at 0.271 µM.

Turning to `Cc1cnc(C(=O)N[C@H]2CCOC[C@@H]2O)cc1Cc1ccc(-n2cccn2)cc1` [Example 9, N-[(3R,4S)-3-Hydroxytetrahydro-2H-pyran-4-yl]-5-methyl-4-[4-(1H-pyrazol-1-yl)benzyl]pyridine-2-carboxamide], the EC50 was 0.109 µM.

As for `Cc1cnc(C(=O)NC[C@H]2CCCO2)cc1Cc1ccc(-n2cccn2)cc1` [Example 43, 5-methyl-4-[4-(1H-pyrazol-1-yl)benzyl]-N-[(2R)-tetrahydrofuran-2-ylmethyl]pyridine-2-carboxamide], the EC50 was determined as 9.25 µM.

On to `Cc1cnc(C(=O)NC2CCCC2O)cc1Cc1ccc(-n2cccn2)cc1` (racemic) [Example 34, N-[trans-2-hydroxycyclopentyl]-5-methyl-4-[4-(1H-pyrazol-1-yl)benzyl]pyridine-2-carboxamide], for which the EC50 is 1.02 µM.

Take `Cc1nc(-c2ccc(Cc3cc(C(=O)N[C@H]4CCOC[C@@H]4O)ncc3C)cc2)no1` [Example 19, N-[(3R,4S)-3-hydroxytetrahydro-2H-pyran-4-yl]-5-methyl-4-[4-(5-methyl-1,2,4-oxadiazol-3-yl)benzyl]pyridine-2-carboxamide]: the EC50 is 5.57 µM.

Regarding `Cc1cnc(C(=O)N[C@H]2CCOC[C@@H]2O)cc1Cc1ccc(-c2nccs2)cc1` [Example 3, N-[(3R,4S)-3-Hydroxytetrahydro-2H-pyran-4-yl]-5-methyl-4-[4-(1,3-thiazol-2-yl)benzyl]pyridine-2-carboxamide], the EC50 stood at 0.101 µM.

For the compound `Cc1nnc(-c2ccc(Cc3cc(C(=O)NC4CCOCC4O)ncc3C)cc2)o1` (single isomer, unassigned) [Example 20], the EC50 was over 9.94 µM.

In the case of `Cc1cnc(C(=O)N[C@H]2CCOC[C@@H]2O)cc1C(F)c1ccc(-c2cscn2)cc1` (single isomer, unassigned; diastereomer 1) [Example 59], the EC50 was 1.83 µM.

As to `Cc1cnc(C(=O)N[C@H]2CCOC[C@@H]2O)cc1Cc1ccc(-c2cnn(C)c2)cc1F` [Example 2, 4-[2-Fluoro-4-(1-methyl-1H-pyrazol-4-yl)benzyl]-N-[(3R,4S)-3-hydroxytetrahydro-2H-pyran-4-yl]-5-methylpyridine-2-carboxamide], the EC50 is 0.125 µM.

As to `Cc1cnc(C(=O)NC2CCCCC2O)cc1Cc1ccc(-n2cccn2)cc1` (single isomer, unassigned; (+)) [Example 13, (+)-N-[(1,2-cis)-2-Hydroxycyclohexyl]-5-methyl-4-[4-(1H-pyrazol-1-yl)benzyl]pyridine-2-carboxamide], the EC50 came out at 1.46 µM.

For the origin of these results see US20160016907A1, “PYRIDINE DERIVATIVES AS MUSCARINIC M1 RECEPTOR POSITIVE ALLOSTERIC MODULATORS” (PFIZER INC., priority 2014, published 2016).
